Where a name gives a salt, the structure may show the parent alone. Read-outs that look alike come from different tables or passages of the source.
Assay: Rat oral pharmacokinetics (plasma eicosapentaenoic acid after oral gavage)
Type: in vivo
Details: Sprague-Dawley rats, oral gavage 40 mg/kg in 0.5% carboxymethyl cellulose, analyte EPA in plasma, mean of 6 rats
Description: Oral pharmacokinetic parameters of piperazine di-eicosapentaenoate, prepared by the procedure described in Example 2, were determined in Sprague-Dawley rats. Piperazine di-eicosapentaenoate was administered by oral gavage as an aqueous solution in 0.5% carboxymethyl cellulose to 6 Sprague-Dawley rats, 3 males and 3 females. Rats were dosed at 40 mg/kg. Blood samples were obtained from each rat by jugular vein catheter. […] Blood samples were centrifuged to separate red blood cells and the resulting plasma samples were analyzed for eicosapentaenoic acid. Calculated pharmacokinetic parameters shown below in Table 1 are mean values from 6 rats. […] Rats were dosed at 40 mg/kg. Blood samples were obtained from each rat by jugular vein catheter. […] Blood samples were centrifuged to separate red blood cells and the resulting plasma samples were analyzed for eicosapentaenoic acid. Calculated pharmacokinetic parameters shown below (Table 2) are mean values from 6 rats.

Row | SMILES | AUC (0-24) (0-24 h) | Cmax | Tmax | AUC(0-t) (both sexes, rat, 0-24 h) | Cmax (both sexes, rat, read-out: Cmax) | Tmax (both sexes, rat, read-out: Tmax)
1 | CC/C=C\C/C=C\C/C=C\C/C=C\C/C=C\CCCC(=O)O.CC/C=C\C/C=C\C/C=C\C/C=C\C/C=C\CCCC(=O)O.NCCN [Ethylene diamine di-eicosapentaenoate, Ethane-1,2-diaminium di[(5Z,8Z,11Z,14Z,17Z)-icosa-5,8,11,14,17-pentaenoate]] | 275.29 µg·h/mL | 18.37 µg/mL | 2.0 h |  |  | 
2 | CC/C=C\C/C=C\C/C=C\C/C=C\C/C=C\CCCC(=O)O [Piperazine di-eicosapentaenoate, Bis[(5Z,8Z,11Z,14Z,17Z)-icosa-5,8,11,14,17-pentaenoatel Piperazine Salt] |  |  |  | 135 µg·h/mL | 28.2 µg/mL | 1 h
